Measured values: the NIST ThermoML archive (doi:10.1021/je700261b)

Conditions: Liquid

CCCCO [butan-1-ol]
Conditions	mass density [kg/m3]
313.08 K, 1006 kPa	795.22
313.08 K, 2017 kPa	796.08
313.08 K, 3007 kPa	796.85
313.08 K, 4010 kPa	797.64
313.08 K, 5016 kPa	798.44
313.08 K, 6017 kPa	799.22
313.08 K, 7011 kPa	800
313.08 K, 8006 kPa	800.77
313.08 K, 9019 kPa	801.53
313.08 K, 10008 kPa	802.27
313.08 K, 11014 kPa	803.01
313.08 K, 12016 kPa	803.73
313.08 K, 13016 kPa	804.46
313.08 K, 14013 kPa	805.18
313.08 K, 15010 kPa	805.91
313.08 K, 16003 kPa	806.58
313.08 K, 16999 kPa	807.29
313.08 K, 17999 kPa	807.98
313.08 K, 19024 kPa	808.67
313.08 K, 20005 kPa	809.33
313.08 K, 21013 kPa	810.09
313.08 K, 22003 kPa	810.75
313.08 K, 23024 kPa	811.41
313.08 K, 24027 kPa	812.09
313.08 K, 24234 kPa	812.21
323.05 K, 999 kPa	787.38
323.05 K, 2026 kPa	788.22
323.05 K, 3007 kPa	789.03
323.05 K, 4024 kPa	789.91
323.05 K, 5012 kPa	790.75
323.05 K, 6016 kPa	791.57
323.05 K, 7023 kPa	792.4
323.05 K, 8004 kPa	793.16
323.05 K, 9009 kPa	793.98
323.05 K, 10007 kPa	794.78
323.05 K, 11004 kPa	795.57
323.05 K, 11995 kPa	796.32
323.05 K, 13007 kPa	797.09
323.05 K, 14022 kPa	797.85
323.05 K, 14989 kPa	798.63
323.05 K, 16006 kPa	799.33
323.05 K, 16998 kPa	800.1
323.05 K, 18001 kPa	800.84
323.05 K, 19025 kPa	801.56
323.05 K, 19993 kPa	802.28
323.05 K, 21032 kPa	803.06
323.05 K, 22006 kPa	803.74
323.05 K, 22993 kPa	804.41
323.05 K, 24012 kPa	805.16
323.05 K, 24418 kPa	805.43
332.93 K, 1013 kPa	779.33
332.93 K, 2026 kPa	780.27
332.93 K, 3014 kPa	781.21
332.93 K, 4006 kPa	782.04
332.93 K, 5000 kPa	782.91
332.93 K, 6013 kPa	783.78
332.93 K, 6997 kPa	784.6
332.93 K, 8003 kPa	785.5
332.93 K, 9005 kPa	786.32
332.93 K, 10001 kPa	787.17
332.93 K, 10996 kPa	787.97
332.93 K, 12003 kPa	788.8
332.93 K, 12993 kPa	789.62
332.93 K, 14001 kPa	790.38
332.93 K, 15016 kPa	791.22
332.93 K, 15998 kPa	791.96
332.93 K, 16999 kPa	792.72
332.93 K, 18009 kPa	793.53
332.93 K, 18986 kPa	794.29
332.93 K, 20043 kPa	795.08
332.93 K, 21056 kPa	795.87
332.93 K, 22040 kPa	796.59
332.93 K, 23009 kPa	797.3
332.93 K, 24001 kPa	798.04
332.93 K, 24515 kPa	798.46
